Source: patent US7795290B2 (Genentech, Inc., priority 2004, dated 2010)

target: T1, AKT1 (Homo sapiens, UniProt P31749); test: HTS ATP-utilizing enzyme assay, off-chip mobility-shift (Caliper HTS 250); format: biochemical; conditions: kinase named = inhibitory activity/selectivity; test compound 10 μM; active = greater than three-sigma from mean
T1 construct: purchased Upstate 14-276
Method in brief: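 AKT1 activity was measured by off-chip mobility shift (Caliper HTS 250) as the ratio of peptide substrate to phosphorylated product. Test compound was at 10 μM, with 2.5 h incubation at 20–22° C. EDTA wells served as 100% control and DMSO wells as 0%. Hits were called at three-sigma limits.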

T1 sequence (P31749 whole entry): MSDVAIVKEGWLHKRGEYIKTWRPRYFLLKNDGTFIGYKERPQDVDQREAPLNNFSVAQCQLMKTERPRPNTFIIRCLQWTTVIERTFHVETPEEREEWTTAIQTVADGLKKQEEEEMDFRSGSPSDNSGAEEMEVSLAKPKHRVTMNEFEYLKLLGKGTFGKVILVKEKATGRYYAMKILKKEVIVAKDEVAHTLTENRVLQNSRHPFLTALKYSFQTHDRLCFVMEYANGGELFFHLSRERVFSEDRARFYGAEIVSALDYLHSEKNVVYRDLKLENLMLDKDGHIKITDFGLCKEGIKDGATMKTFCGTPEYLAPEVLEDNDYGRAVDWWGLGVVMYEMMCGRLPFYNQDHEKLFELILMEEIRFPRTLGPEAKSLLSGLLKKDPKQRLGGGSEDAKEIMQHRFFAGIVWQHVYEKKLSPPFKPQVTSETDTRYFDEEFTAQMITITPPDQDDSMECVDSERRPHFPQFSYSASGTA

| Activity | Compound |
| --- | --- |
| AKT1 | COc1ccc(-c2csc(N(CCCN3CCOCC3)C(=O)c3sccc3Br)n2)cc1 [3-bromo-N-(4-(4-methoxyphenyl)thiazol-2-yl)-N-(3-morpholinopropyl)thiophene-2-carboxamide] |
| AKT1 | COc1ccc(-c2csc(N(CCCN3CCOCC3)C(=O)c3ccc(Br)s3)n2)cc1 [5-bromo-N-(4-(4-methoxyphenyl)thiazol-2-yl)-N-(3-morpholinopropyl)thiophene-2-carboxamide] |
| AKT1 | COc1ccc(-c2csc(N(CCCN3CCOCC3)C(=O)c3cccc(Cl)n3)n2)cc1 [6-chloro-N-(4-(4-methoxyphenyl)thiazol-2-yl)-N-(3-morpholinopropyl)picolinamide] |
| AKT1 | COc1ccc(-c2csc(N(CCCN3CCOCC3)C(=O)c3ccco3)n2)cc1 [N-(4-(4-methoxyphenyl)thiazol-2-yl)-N-(3-morpholinopropyl)furan-2-carboxamide] |

target: CHEK2 (Homo sapiens, UniProt O96017); test: as above; format: biochemical; conditions: kinase named = inhibitory activity/selectivity; test compound 10 μM; active = greater than three-sigma from mean
Sequence (O96017 whole entry): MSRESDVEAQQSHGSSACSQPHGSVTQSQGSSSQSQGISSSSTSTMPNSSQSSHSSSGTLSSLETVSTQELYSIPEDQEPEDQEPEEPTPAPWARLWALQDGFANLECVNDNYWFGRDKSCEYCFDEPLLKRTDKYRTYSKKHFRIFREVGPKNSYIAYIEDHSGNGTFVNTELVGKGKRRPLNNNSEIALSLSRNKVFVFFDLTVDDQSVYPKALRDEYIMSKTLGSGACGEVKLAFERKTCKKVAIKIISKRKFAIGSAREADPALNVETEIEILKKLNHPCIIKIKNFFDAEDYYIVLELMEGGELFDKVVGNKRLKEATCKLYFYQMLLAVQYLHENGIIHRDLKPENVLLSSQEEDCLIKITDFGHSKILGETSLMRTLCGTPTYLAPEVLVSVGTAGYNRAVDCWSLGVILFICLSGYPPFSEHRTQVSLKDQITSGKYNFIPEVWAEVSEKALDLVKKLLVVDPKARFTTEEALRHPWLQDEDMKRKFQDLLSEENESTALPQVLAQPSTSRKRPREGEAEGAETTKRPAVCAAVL
Source text: (§1) The following procedures describe the reagent and plate preparation for a HTS of an ATP-utilizing enzyme, such as a protein kinase, run in an off-chip mobility-shift assay format. The following provides an HTS protocol for running a protein kinase HTS screen on a Caliper HTS 250 microfluidics system. The following parameters are dependent on the protein kinase used and can be determined by one skilled in the art as part of a typical assay development process. For example, the peptide substrate used can be identified from the current literature, by screening a peptide library of potential protein kinase substrates, or by other applicable means accepted in the field.
(§2) Assays to determine the kinase inhibitory activity of chemical entities of the present disclosure were performed using a Caliper HTS 250 microfluidics device, Greiner U-bottom assay plates, a Multidrop for transfer of reagents, and Biomek FX (AMNCBM03) software. Initially, 2.4 μL of a 1 mM solution of a test compound in 100% DMSO was added to a well of the Greiner U-bottom plate. A single Greiner U-bottom plate having 24×16 wells could include multiple test compounds. Next, 40 μL of 1.06× Assay Buffer was added to each well of the assay plate. Using the Biomek FX, 10 μL of 0.5 M EDTA was added by the span-8 to wells, indicated as 100% Control and 2.4 μL of 100% DMSO was added by the span-8 to wells, indicated as 0% Control. Using the Multidrop, 10 μL of 2.5× Enzyme Buffer, followed by 10 μL of 2.5× Substrate Buffer was added to each well of the assay plate. The total reaction volume in each well was 25 μL, and the concentration of the test compound was 10 μM. The assay plate was incubated for 2.5 hrs at 20° C. to 22° C. After the incubation period, using the Multidrop, 45 μL of 1.55× Termination Buffer was added to each well of the assay plate to stop the reaction. The inhibition of the ATP-utilizing enzyme, such as a particular protein kinase, was determined by measuring the ratio of the peptide substrate to phosphorylated product for each well of the assay plate using the Caliper HTS 250 system.
(§3) The use of three-sigma statistical limits represents a conservative method for declaring potential hits among targets. The three-sigma activity, as well as the mean population activity, can be different for each target enzyme. This method has an expected false positive rate, from an in-control measurement process, of […].
(§4) Each chemical entity listed in Table 2 was tested for protein kinase inhibitory activity according to the biological assays and definitions of protein kinase inhibitory activity as described herein. For each exemplary compound listed in Table 2, the inhibitory activity for at least one protein kinase according to the biological assays and definitions of protein kinase inhibitory activity as described herein is indicated.

| Activity | Compound |
| --- | --- |
| CHEK2 | CCN(CC)CCCN(C(=O)c1ccccc1Cl)c1nc(-c2cc(OC)ccc2OC)cs1 [2-chloro-N-(3-(diethylamino)propyl)-N-(4-(2,5-dimethoxyphenyl)thiazol-2-yl)benzamide] |

target: T2, ZAP70 (Homo sapiens, UniProt P43403); test: as above; format: biochemical; conditions: kinase named = inhibitory activity/selectivity; test compound 10 μM; active = greater than three-sigma from mean
T2 sequence (P43403 1-619): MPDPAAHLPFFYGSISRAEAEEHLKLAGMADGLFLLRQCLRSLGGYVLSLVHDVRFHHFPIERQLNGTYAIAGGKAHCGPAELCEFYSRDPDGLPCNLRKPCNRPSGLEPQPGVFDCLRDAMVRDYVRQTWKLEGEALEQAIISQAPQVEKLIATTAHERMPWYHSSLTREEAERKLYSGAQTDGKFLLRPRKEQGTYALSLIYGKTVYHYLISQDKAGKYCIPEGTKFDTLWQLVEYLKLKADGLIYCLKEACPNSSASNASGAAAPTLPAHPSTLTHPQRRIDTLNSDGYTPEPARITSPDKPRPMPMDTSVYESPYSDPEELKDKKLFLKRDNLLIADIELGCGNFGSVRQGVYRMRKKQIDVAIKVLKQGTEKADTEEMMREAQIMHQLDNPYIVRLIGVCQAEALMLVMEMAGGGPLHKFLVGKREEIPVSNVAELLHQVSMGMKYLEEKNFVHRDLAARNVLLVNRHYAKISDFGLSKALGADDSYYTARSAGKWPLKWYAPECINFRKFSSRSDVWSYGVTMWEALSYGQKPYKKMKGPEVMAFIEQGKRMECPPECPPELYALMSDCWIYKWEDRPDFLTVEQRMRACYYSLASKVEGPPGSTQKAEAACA
Source text: as §1, §2, §3, §4

| Activity | Compound |
| --- | --- |
| ZAP70 | COc1ccc(-c2csc(N(CCCN3CCOCC3)C(=O)c3ccccc3C#N)n2)cc1 [2-cyano-N-(4-(4-methoxyphenyl)thiazol-2-yl)-N-(3-morpholinopropyl)benzamide] |
| ZAP70 | COc1ccc(-c2csc(N(CCCN3CCOCC3)C(=O)c3sccc3Br)n2)cc1 [3-bromo-N-(4-(4-methoxyphenyl)thiazol-2-yl)-N-(3-morpholinopropyl)thiophene-2-carboxamide] |
| ZAP70 | COc1ccc(-c2csc(N(CCCN3CCOCC3)C(=O)c3nsc(Cl)c3Cl)n2)cc1 [4,5-dichloro-N-(4-(4-methoxyphenyl)thiazol-2-yl)-N-(3-morpholinopropyl)isothiazole-3-carboxamide] |
| ZAP70 | COc1ccc(-c2csc(N(CCCN3CCOCC3)C(=O)c3ccc(C(C)=O)s3)n2)cc1 [5-acetyl-N-(4-(4-methoxyphenyl)thiazol-2-yl)-N-(3-morpholinopropyl)thiophene-2-carboxamide] |
| ZAP70 | COc1ccc(-c2csc(N(CCCN3CCOCC3)C(=O)c3ccc(Br)s3)n2)cc1 [5-bromo-N-(4-(4-methoxyphenyl)thiazol-2-yl)-N-(3-morpholinopropyl)thiophene-2-carboxamide] |
| ZAP70 | COc1ccc(-c2csc(N(CCCN3CCOCC3)C(=O)c3cccc(Cl)n3)n2)cc1 [6-chloro-N-(4-(4-methoxyphenyl)thiazol-2-yl)-N-(3-morpholinopropyl)picolinamide] |
| ZAP70 | COc1ccc(-c2csc(N(CCCN3CCOCC3)C(=O)c3conc3C)n2)cc1 [N-(4-(4-methoxyphenyl)thiazol-2-yl)-3-methyl-N-(3-morpholinopropyl)isoxazole-4-carboxamide] |

target: T3, DYRK2 (Homo sapiens, UniProt Q92630); test: as above; format: biochemical; conditions: kinase named = inhibitory activity/selectivity; test compound 10 μM; active = greater than three-sigma from mean
T3 sequence (Q92630 1-601): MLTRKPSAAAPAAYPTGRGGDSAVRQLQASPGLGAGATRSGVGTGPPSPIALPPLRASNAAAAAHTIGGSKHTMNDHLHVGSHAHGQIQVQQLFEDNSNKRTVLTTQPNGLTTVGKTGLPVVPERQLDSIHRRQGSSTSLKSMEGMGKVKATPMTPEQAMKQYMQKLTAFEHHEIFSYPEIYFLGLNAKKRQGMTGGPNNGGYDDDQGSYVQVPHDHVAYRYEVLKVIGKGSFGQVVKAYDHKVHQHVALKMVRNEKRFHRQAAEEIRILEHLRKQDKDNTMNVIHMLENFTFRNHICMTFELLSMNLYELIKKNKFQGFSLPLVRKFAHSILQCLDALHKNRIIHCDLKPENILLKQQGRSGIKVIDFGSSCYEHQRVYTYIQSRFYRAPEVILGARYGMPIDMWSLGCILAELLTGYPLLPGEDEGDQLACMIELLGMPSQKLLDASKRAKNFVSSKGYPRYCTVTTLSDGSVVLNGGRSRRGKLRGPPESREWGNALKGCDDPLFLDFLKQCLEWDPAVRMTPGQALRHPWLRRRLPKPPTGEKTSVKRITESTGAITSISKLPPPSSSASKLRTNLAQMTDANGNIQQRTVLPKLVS
Source text: as §1, §2, §3, §4

| Compound | Activity |
| --- | --- |
| COc1ccc(-c2csc(N(CCCN3CCOCC3)C(=O)Cc3cccc(Cl)c3)n2)cc1 [2-(3-chlorophenyl)-N-(4-(4-methoxyphenyl)thiazol-2-yl)-N-(3-morpholinopropyl)acetamide] | DYRK2 |
| COCCN(C(=O)CCC(=O)O)c1nc(-c2ccc(OC)cc2)cs1 [4-((2-methoxyethyl)(4-(4-methoxyphenyl)thiazol-2-yl)amino)-4-oxobutanoic acid] | DYRK2 |
| COc1ccc(-c2csc(N(CCc3ccc(OC)c(OC)c3)C(=O)CCC(=O)O)n2)cc1 [4-((3,4-dimethoxyphenethyl)(4-(4-methoxyphenyl)thiazol-2-yl)amino)-4-oxobutanoic acid] | DYRK2 |
| COc1ccc(-c2csc(N(C)C(=O)CCC(=O)O)n2)cc1 [4-((4-(4-methoxyphenyl)thiazol-2-yl)(methyl)amino)-4-oxobutanoic acid] | DYRK2 |
| COc1ccc(-c2csc(N(CCc3ccccc3)C(=O)CCC(=O)O)n2)cc1 [4-((4-(4-methoxyphenyl)thiazol-2-yl)(phenethyl)amino)-4-oxobutanoic acid] | DYRK2 |
| COc1ccc(-c2csc(N(Cc3ccccc3)C(=O)CCC(=O)O)n2)cc1 [4-(benzyl(4-(4-methoxyphenyl)thiazol-2-yl)amino)-4-oxobutanoic acid] | DYRK2 |
| CCN(C(=O)CCC(=O)O)c1nc(-c2ccc(OC)cc2)cs1 [4-(ethyl(4-(4-methoxyphenyl)thiazol-2-yl)amino)-4-oxobutanoic acid] | DYRK2 |
| CCC(=O)N(CCCOC)c1nc(-c2ccc(OC)cc2)cs1 [N-(4-(4-methoxyphenyl)thiazol-2-yl)-N-(3-methoxypropyl)propionamide] | DYRK2 |
| CCC(=O)N(CC1CCCO1)c1nc(-c2ccc(OC)cc2)cs1 (centres unmarked) [N-(4-(4-methoxyphenyl)thiazol-2-yl)-N-((tetrahydrofuran-2-yl)methyl)propionamide] | DYRK2 |
| COc1ccc(-c2csc(N(C)C(C)=O)n2)cc1 [N-(4-(4-methoxyphenyl)thiazol-2-yl)-N-methylacetamide] | DYRK2 |
| CCC(=O)N(CC)c1nc(-c2ccc(OC)cc2)cs1 [N-ethyl-N-(4-(4-methoxyphenyl)thiazol-2-yl)propionamide] | DYRK2 |

Next, values leading:

| Activity | Compound |
| --- | --- |
| DYRK2 | COCCCN(C(=O)CCC(=O)O)c1nc(-c2ccc(OC)cc2)cs1 [4-((4-(4-methoxyphenyl)thiazol-2-yl)(3-methoxypropyl)amino)-4-oxobutanoic acid] |
| DYRK2 | COc1ccc(-c2csc(N(CC3CCCO3)C(=O)CCC(=O)O)n2)cc1 (centres unmarked) [4-((4-(4-methoxyphenyl)thiazol-2-yl)((tetrahydrofuran-2-yl)methyl)amino)-4-oxobutanoic acid] |
| DYRK2 | COc1ccc(-c2csc(N(Cc3ccco3)C(=O)CCC(=O)O)n2)cc1 [4-((furan-2-ylmethyl)(4-(4-methoxyphenyl)thiazol-2-yl)amino)-4-oxobutanoic acid] |
| DYRK2 | COCCN(C(C)=O)c1nc(-c2ccc(OC)cc2)cs1 [N-(2-methoxyethyl)-N-(4-(4-methoxyphenyl)thiazol-2-yl)acetamide] |
| DYRK2 | CCN(CC)CCCN(C(=O)COc1ccc(C)cc1)c1nc(-c2ccc(OC)cc2)cs1 [N-(3-(diethylamino)propyl)-N-(4-(4-methoxyphenyl)thiazol-2-yl)-2-(p-tolyloxy)acetamide] |
| DYRK2 | COc1ccc(-c2csc(N(CCCN3CCOCC3)C(=O)CC(C)(C)C)n2)cc1 [N-(4-(4-methoxyphenyl)thiazol-2-yl)-3,3-dimethyl-N-(3-morpholinopropyl)butanamide] |
| DYRK2 | COc1ccc(-c2csc(N(CCCN3CCOCC3)C(=O)c3conc3C)n2)cc1 [N-(4-(4-methoxyphenyl)thiazol-2-yl)-3-methyl-N-(3-morpholinopropyl)isoxazole-4-carboxamide] |
| DYRK2 | COc1ccc(-c2csc(N(CCCN3CCOCC3)C(C)=O)n2)cc1 [N-(4-(4-methoxyphenyl)thiazol-2-yl)-N-(3-morpholinopropyl)acetamide] |
| DYRK2 | COc1ccc(-c2csc(N(CCCN3CCOCC3)C(=O)c3ccco3)n2)cc1 [N-(4-(4-methoxyphenyl)thiazol-2-yl)-N-(3-morpholinopropyl)furan-2-carboxamide] |
